Measurements reported in patent publication US8198279B2, “Pyrido[2,3-b]pyrazin-8-substituted compounds and their use” (Institute of Cancer Research: Royal Cancer Hospital (The), priority 2007, dated 2012).

Key:
WM266.4 melanoma cells = test: SRB Cell Proliferation Assay (SRB GI50); type: cell-based; settings: Homo sapiens, WM 266-4, 144 h, 6 days growth
Protocol: Biological Methods —SRB Cell Proliferation Assay (SRB GI50)
Cultures of WM266.4 melanoma cells are routinely cultured in DMEM/10% foetal bovine serum, at 37° C., in 5% CO2 water saturated atmosphere. Cultures are maintained in exponential growth phase by sub-culturing before having become confluent (3-5 day intervals). Single cell suspensions are prepared by harvesting an 80 cm^2 tissue culture flask with 5 mL commercial trypsin EDTA. After 5 minutes, the detached cells are mixed with 5 mL fully complemented culture medium and centrifugally pelleted (1000 rpm for 7 minutes). After aspirating the supernatant, the cell pellet is re-suspended in 10 mL fresh medium and the cells fully disaggregated by drawing the whole volume up/down 5 times through a 19-gauge needle. The concentration of the cells is determined using a haemocytometer (1/10 dilution). A suitable volume to give at least a 2-fold excess for the number of tests being conducted, typically 100-200 mL, is prepared by diluting the cell suspension to 10,000/mL, and 100 μL/well dispensed into 96 well plates using a programmable 8-channel peristaltic pump, giving 1000 cells/well, leaving column 12 blank. The plates are returned to the incubator for 24 hours to allow the cells to re-attach.
The compounds being tested are prepared at 20 mM in dimethylsulphoxide. Aliquots (200 μL) are diluted into 20 mL culture medium giving 200 μM, and 10 serial dilutions of 3× performed by transferring 5 mL to 10 mL. Aliquots (100 μL) of each dilution are added to the wells, using an 8-channel pipettor, thus performing a final further 2× dilution, and giving doses ranging from 100 μM to 0.005 μM. Column 11 receives plain culture medium only. Each compound is tested in quadruplicate, each replicate being the average of four wells, and two plates per compound.
After a further 6 days growth, the plates are emptied, and the cells are fixed in 10% trichloroacteic acid for 10 minutes on ice. After thorough rinsing in running tap water, the plates are dried, and stained by adding 50 μL of a solution of 0.1% sulphorhodamine-B in 1% acetic acid, for 10 minutes at room temperature. The stain is poured out and the plates thoroughly rinsed under a stream of 1% acetic acid, thus removing unbound stain, and dried. The bound stain is taken into solution by addition of 150 μL Tris buffer pH 8, followed by 10 minutes on a plate-shaker (approximately 500 rpm). The absorbance at 540 nm in each well (being proportional to the number of cells present) is determined using a plate reader.
After averaging the results in rows A-D and E-H, the blank value (row 12) is subtracted, and results expressed as percentage of the untreated value (row 11). […] The GI50 generated by this procedure is the concentration of the drug that produces a percentage control A540 midway between the saturation, and zero-effect plateaus.

B-RAF = target: T1, B-RAF (Homo sapiens, UniProt P15056, V600E); test: DELFIA Kinase Assay; type: biochemical; settings: 100 μM ATP, GST-MEK substrate
T1 construct: made in house
T1 sequence (P15056 whole entry V600E): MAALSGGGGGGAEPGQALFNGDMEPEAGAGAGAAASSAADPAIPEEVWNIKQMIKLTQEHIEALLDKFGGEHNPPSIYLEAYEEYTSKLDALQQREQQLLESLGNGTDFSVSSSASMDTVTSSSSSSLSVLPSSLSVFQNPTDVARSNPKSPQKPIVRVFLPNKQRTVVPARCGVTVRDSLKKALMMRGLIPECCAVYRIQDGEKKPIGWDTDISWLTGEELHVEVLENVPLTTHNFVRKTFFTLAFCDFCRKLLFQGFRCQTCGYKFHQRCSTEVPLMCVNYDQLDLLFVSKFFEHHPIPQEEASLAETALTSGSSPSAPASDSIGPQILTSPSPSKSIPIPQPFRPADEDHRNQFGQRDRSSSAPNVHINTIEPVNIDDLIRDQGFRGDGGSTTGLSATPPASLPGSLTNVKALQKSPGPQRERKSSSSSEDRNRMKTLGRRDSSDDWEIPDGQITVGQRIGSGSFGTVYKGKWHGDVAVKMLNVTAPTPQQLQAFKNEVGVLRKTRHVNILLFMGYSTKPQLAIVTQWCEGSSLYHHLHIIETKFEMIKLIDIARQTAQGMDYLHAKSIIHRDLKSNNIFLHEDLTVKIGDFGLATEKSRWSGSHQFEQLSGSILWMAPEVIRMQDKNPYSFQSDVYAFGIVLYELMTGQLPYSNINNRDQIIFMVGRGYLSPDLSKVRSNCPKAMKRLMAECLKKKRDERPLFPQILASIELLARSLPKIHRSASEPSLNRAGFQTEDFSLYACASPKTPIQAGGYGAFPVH
Method in brief: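 Recombinant B-RAF (V600E) with GST-MEK substrate was preincubated with compound for 10 min at room temperature, then reacted with 100 μM ATP for 45 min on milk-preblocked wells, with antibody detection by DELFIA europium fluorescence. Response is taken as % of DMSO control after empty-vector blank subtraction; IC50 is from a variable-slope sigmoidal fit, mean of usually three independent runs.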

pERK = test: Cell Based Phospho-ERK Assay; settings: 6 h, 6 hours incubation with test compound
Protocol: Biological Methods—Cell Based Phosho-ERK Assay
Compounds were assessed using a cell-based assay which was performed according to the following protocol.
Plate out 16,000 cells/well in 99 μL medium in a 96-well plate.
• 1. Add 1 μL inhibitor to the cells (total […] solution). • 2. Incubate the cells with test compound for 6 hours at 37° C. • 3. Aspirate off the solution from all of the wells. • 4. Fixate the cells with 100 μL 4% formaldehyde/0.25% Triton X-100 PBS per well. • 5. Incubate the plate for 1 hour at 4° C. • 6. Aspirate off the fixing solution and add 300 μL TBS per well. • 7. Leave the plate overnight at 4° C. Day 2: • 1. Wash the plate 2× with 200 μL PBS per well. • 2. Block with 100 μL 5% dried milk in TBS. • 3. Incubate the plate for 20 minutes at 37° C. • 4. Wash the plate 2× with 0.1% tween/H2O. • 5. Add 50 μL of 3 μg/mL primary antibody pERK (Sigma M8159), diluted in 5% milk powder/TBS, to each well. • 6. Incubate the plate for 2 hours at 37° C. • 7. Wash the plate 3× with 0.1% tween/H2O. • 8. Add 50 μL of 0.45 μg/mL secondary Europium-labelled anti-mouse antibody (Perkin Elmer) to each well. • 9. Incubate the plate for 1 hour at 37° C. • 10. Wash the plate 3× with 0.1% tween/H2O. • 11. Add 100 μL enhancement solution (Perkin Elmer) to each well. • 12. Leave the plate for approximately 10 minutes at room temperature before gently shaking the plate. • 13. Read Europium Time Resolved Fluorescence in Victor2. • 14. Wash the plate 2× with 0.1% tween/H2O. • 15. Measure the protein concentration with BCA (Sigma) by adding 200 μL of solution per well. • 16. Incubate the plate for 30 minutes at 37° C. • 17. Read absorbance levels at 570 nm in a plate reader.
Note that Europium counts are normalised for protein levels by dividing counts by absorbance.
Values for the blank (no cells) are subtracted from all values. The DMSO controls are set as 100% activity and assay points (the response) are calculated as a percentage of the DMSO control. Data are plotted using Graphpad Prism software and a non-linear regression line is calculated using a variable slope sigmoidal dose-response equation (Y=Bottom+(Top−Bottom)/(1+10^((LogEC50−X)*HillSlope)) where X is the logarithm of concentration. Y is the response). The IC50 generated by this procedure is the concentration of the drug that produces a percentage control fluorescence value midway between the saturation, and zero-effect plateaus. Three independent assays are usually performed and the mean IC50 is reported.

SMILES | GI50 (WM266.4 melanoma cells) [µM] | IC50 (B-RAF) [µM] | IC50 (pERK) [µM]
CSc1cc(Oc2ccnc3[nH]c(=O)cnc23)ccc1NC(=O)Nc1cc(C(C)(C)C)nn1-c1ccccc1 [AA-067, 1-(3-tert-butyl-1-phenyl-1H-pyrazol-5-yl)-3-(2-(methylthio)-4-(3-oxo-3,4-dihydropyrido[2,3-b]pyrazin-8-yloxy)phenyl)urea] | < 1 | < 0.1 | < 1
COc1ccc(-n2nc(C(C)(C)C)cc2NC(=O)Nc2ccc(Oc3ccnc4[nH]c(=O)c(C)nc34)cc2SC)cn1 [AA-064, 1-(3-tert-butyl-1-(6-methoxypyridin-3-yl)-1H-pyrazol-5-yl)-3-(4-(2-methyl-3-oxo-3,4-dihydropyrido[2,3-b]pyrazin-8-yloxy)-2-(methylthio)phenyl)urea] | < 1 | < 0.1 | < 1
O=C(Nc1cc(C(F)(F)F)ccc1F)Nc1ccc(Oc2ccnc3nc(C(F)(F)F)c(=O)[nH]c23)c2ccccc12 [AA-083, 1-(2-fluoro-5-(trifluoromethyl)phenyl)-3-(4-(2-oxo-3-(trifluoromethyl)-1,2-dihydropyrido[2,3-b]pyrazin-8-yloxy)naphthalen-1-yl)urea] | 1 to 10 | 0.1 to 1 | 1 to 10
Cc1ccc(-n2nc(C(C)(C)C)cc2NC(=O)Nc2ccc(Oc3ccnc4nc(CBr)c(=O)[nH]c34)cc2F)cc1 [AA-058, 1-(4-(3-(bromomethyl)-2-oxo-1,2-dihydropyrido[2,3-b]pyrazin-8-yloxy)-2-fluorophenyl)-3-(3-tert-butyl-1-p-tolyl-1H-pyrazol-5-yl)urea] | 1 to 10 | 0.1 to 1 | 1 to 10
O=C(Nc1cncc(C(F)(F)F)c1)Nc1ccc(Oc2ccnc3[nH]c(=O)cnc23)cc1F [AA-069, 1-(2-fluoro-4-(3-oxo-3,4-dihydropyrido[2,3-b]pyrazin-8-yloxy)phenyl)-3-(5-(trifluoromethyl)pyridin-3-yl)urea] | 1 to 10 | < 0.1 | 1 to 10
CC(C)(C)c1cc(NC(=O)Nc2cccc(Oc3ccnc4[nH]c(=O)cnc34)c2)n(-c2ccccc2)n1 [AA-075, 1-(3-tert-butyl-1-phenyl-1H-pyrazol-5-yl)-3-(3-(3-oxo-3,4-dihydropyrido[2,3-b]pyrazin-8-yloxy)phenyl)urea] | < 1 | < 0.1 | < 1
CC(C)(C)c1cc(NC(=O)Nc2ccc(Oc3ccnc4nc(N)c(=O)[nH]c34)c3ccccc23)n(-c2ccccc2)n1 [AA-081, 1-(4-(3-amino-2-oxo-1,2-dihydropyrido[2,3-b]pyrazin-8-yloxy)naphthalen-1-yl)-3-(3-tert-butyl-1-phenyl-1H-pyrazol-5-yl)urea] | < 1 | 0.1 to 1 | < 1
CC(C)(C)c1cc(NC(=O)Nc2cccc(Oc3ccnc4ncc(=O)[nH]c34)c2)n(-c2ccccc2)n1 [AA-076, 1-(3-tert-butyl-1-phenyl-1H-pyrazol-5-yl)-3-(3-(2-oxo-1,2-dihydropyrido[2,3-b]pyrazin-8-yloxy)phenyl)urea] | 1 to 10 | 0.1 to 1 | 1 to 10
C#CCn1nc(C(C)(C)C)cc1NC(=O)Nc1ccc(Oc2ccnc3[nH]c(=O)cnc23)cc1F [AA-096] | 1 to 10 | < 0.1 | < 1
COCn1nc(C(C)(C)C)cc1NC(=O)Nc1ccc(Oc2ccnc3[nH]c(=O)cnc23)cc1F [AA-098, 1-(3-Tert-butyl-1-(methoxymethyl)-1H-pyrazol-5-yl)-3-(2-fluoro-4-(3-oxo-3,4-dihydropyrido[3,2-b]pyrazin-8-yloxy)phenyl)urea] | 1 to 10 | < 0.1 | 1 to 10
Cc1ccc(-n2nc(C(C)(C)C)cc2NC(=O)Nc2ccc(Oc3ccnc4[nH]c(=O)c(=O)[nH]c34)cc2F)cc1 [AA-074, 1-(3-Tert-butyl-1-p-tolyl-1H-pyrazol-5-yl)-3-(4-(2,3-dioxo-1,2,3,4-tetrahydropyrido[3,2-b]pyrazin-8-yloxy)-2-fluorophenyl)urea] | < 1 | < 0.1 | < 1
O=C(Nc1ccc(Oc2ccnc3[nH]c(=O)c(=O)[nH]c23)cc1F)Nc1cc(C(F)(F)F)ccc1F [AA-072, 1-(4-(2,3-Dioxo-1,2,3,4-tetrahydropyrido[3,2-b]pyrazin-8-yloxy)-2-fluorophenyl)-3-(2-fluoro-5-(trifluoromethyl)phenyl)urea] | 1 to 10 | < 0.1 | < 1
CC(C)(C)c1cc(NC(=O)Nc2ccc(Oc3ccnc4nc(N5CCOCC5)cnc34)cc2F)n(-c2ccccc2)n1 [AA-071, 1-(3-Tert-butyl-1-phenyl-1H-pyrazol-5-yl)-3-(2-fluoro-4-(3-morpholinopyrido[3,2-b]pyrazin-8-yloxy)phenyl)urea] | < 1 | 0.1 to 1 | < 1
CSc1cc(Oc2ccnc3ncc(=O)[nH]c23)ccc1NC(=O)Nc1cc(C(C)(C)C)nn1-c1ccccc1 [AA-066, 1-(3-tert-butyl-1-phenyl-1H-pyrazol-5-yl)-3-(2-(methylthio)-4-(2-oxo-1,2-dihydropyrido[2,3-b]pyrazin-8-yloxy)phenyl)urea] | < 1 | 0.1 to 1 | < 1
C=CCn1nc(C(C)(C)C)cc1NC(=O)Nc1ccc(Oc2ccnc3[nH]c(=O)cnc23)cc1F [AA-095, 5-[(4-amino-2-fluorophenyl-oxy)carbonylamino-5-(1-N-allyl-3-t-butyl-imidazolyl)]-pyridin-[2, 3]-3-pyrazin-2-one] | 1 to 10 | < 0.1 | < 1
CC(C)(C)c1cc(NC(=O)Nc2ccc(Oc3ccnc4[nH]c(=O)c(N)nc34)c3ccccc23)n(-c2ccccc2)n1 [AA-080, 1-(4-(2-amino-3-oxo-3,4-dihydropyrido[2,3-b]pyrazin-8-yloxy)naphthalen-1-yl)-3-(3-tert-butyl-1-phenyl-1H-pyrazol-5-yl)urea] | < 1 | < 0.1 | < 1
CSc1cc(Oc2ccnc3[nH]c(=O)c(C)nc23)ccc1NC(=O)Nc1cc(C(C)(C)C)nn1-c1ccc(C)cc1 [AA-061, 1-(3-tert-butyl-1-p-tolyl-1H-pyrazol-5-yl)-3-(4-(2-methyl-3-oxo-3,4-dihydropyrido[2,3-b]pyrazin-8-yloxy)-2-(methylthio)phenyl)urea] | < 1 | < 0.1 | < 1
